Measured values: ChEMBL document CHEMBL1201862, “PubChem BioAssay data set” (2004)
Active and inactive are the calls of the source.

How the values were obtained:
[1] = biological target: T1, Mannose-6-phosphate isomerase (Homo sapiens, UniProt P34949); experiment: MPI inhibition at elevated mannose 6-phosphate – biochemical, fluorescence intensity, high mannose 6-phosphate, primary screen (AID 1220)
T1 sequence (P34949 whole entry): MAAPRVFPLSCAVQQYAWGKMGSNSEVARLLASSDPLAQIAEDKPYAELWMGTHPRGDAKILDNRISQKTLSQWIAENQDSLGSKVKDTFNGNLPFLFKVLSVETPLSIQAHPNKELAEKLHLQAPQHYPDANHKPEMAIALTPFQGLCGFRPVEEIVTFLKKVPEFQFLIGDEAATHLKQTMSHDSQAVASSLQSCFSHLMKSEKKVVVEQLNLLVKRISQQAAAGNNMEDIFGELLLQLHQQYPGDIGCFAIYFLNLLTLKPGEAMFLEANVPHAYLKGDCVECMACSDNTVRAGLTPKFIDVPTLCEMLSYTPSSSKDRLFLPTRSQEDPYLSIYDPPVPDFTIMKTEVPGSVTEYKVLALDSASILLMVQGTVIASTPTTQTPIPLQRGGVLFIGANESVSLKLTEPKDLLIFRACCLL

cells [2] = format: functional, cell-based
cells [3] = format: functional, cell-based; remark: listed apart in the source
cells [4] = format: functional
[5] = THP-1 cell cytotoxicity, dose response, cytotoxicity control for non-replicating M. tuberculosis project (AID 489025); format: functional
[6] = biological target: Heat shock protein HSP 90-alpha (Homo sapiens, UniProt P07900); format: functional, organism-based
[7] = Luminescence Cell-Based Dose Confirmation HTS to Identify Activators of 5'UTR Stem-Loop Driven Alpha-Synuclein mRNA Translation in H4 Neuroglioblastoma Cells. [Related pubchem assays: 1829 (Project Summary), 1814 (Primary HTS)]; format: functional
H4 = experiment: Luminescence Cell-Based Dose Response HTS to Identify Activators of 5'UTR Stem-Loop Driven Prion Protein mRNA Translation in H4 Neuroglioblastoma Cells. [Related pubchem assays: 1829 (Project Summary), 1814 (Primary HTS)]; format: functional; settings: Homo sapiens
[8] = Luminescence Cell-Based Dose Response HTS to Identify Activators of Luciferase Translation or Activity in H4 […] Cells. [Related pubchem assays: 1829 (Project Summary), 1814 (Primary HTS)]; format: functional
[9] = biological target: T2, RNA-binding protein pos-1 (Caenorhabditis elegans, UniProt G5EF15); experiment: disruptors of C. elegans POS-1 RNA interaction – biochemical, fluorescence polarization, dose response (AID 1964);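 further: purified POS-1 fused to maltose binding protein made in E. coli; potency of compounds blocking POS-1 binding to fluorescent RNA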
T2 sequence (G5EF15 whole entry): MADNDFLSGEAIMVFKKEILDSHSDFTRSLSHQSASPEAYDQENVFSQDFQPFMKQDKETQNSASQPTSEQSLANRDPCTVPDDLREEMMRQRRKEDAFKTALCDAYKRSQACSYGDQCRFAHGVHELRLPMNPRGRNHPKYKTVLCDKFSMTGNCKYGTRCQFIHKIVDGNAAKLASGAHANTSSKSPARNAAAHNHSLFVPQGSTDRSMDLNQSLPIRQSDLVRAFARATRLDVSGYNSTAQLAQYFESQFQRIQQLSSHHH

[10] = biological target: T3, Zinc finger protein mex-5 (Caenorhabditis elegans, UniProt Q9XUB2); experiment: potency of MEX-5 RNA-binding blockers – biochemical, C. elegans, fluorescence polarization, dose response (AID 1960)
T3 sequence (Q9XUB2 whole entry): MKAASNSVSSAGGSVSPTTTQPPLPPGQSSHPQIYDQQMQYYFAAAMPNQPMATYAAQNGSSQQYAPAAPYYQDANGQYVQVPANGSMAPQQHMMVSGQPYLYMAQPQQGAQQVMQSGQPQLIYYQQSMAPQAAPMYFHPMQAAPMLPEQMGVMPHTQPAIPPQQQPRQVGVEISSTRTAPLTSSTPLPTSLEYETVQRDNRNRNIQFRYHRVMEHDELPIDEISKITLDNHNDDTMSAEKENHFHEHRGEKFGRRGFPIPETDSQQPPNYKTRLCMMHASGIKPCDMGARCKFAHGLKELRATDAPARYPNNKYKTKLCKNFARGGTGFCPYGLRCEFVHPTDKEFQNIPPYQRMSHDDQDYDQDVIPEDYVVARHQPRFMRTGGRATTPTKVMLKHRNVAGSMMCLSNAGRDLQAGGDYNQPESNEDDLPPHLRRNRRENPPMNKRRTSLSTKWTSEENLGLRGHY

[11] = biological target: Induced myeloid leukemia cell differentiation protein Mcl-1 (Homo sapiens, UniProt Q07820); format: functional
Cytochrome P450 3A4 = Cytochrome P450 3A4 (Homo sapiens, UniProt P08684); settings: Potency;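 further: confirmatory qHTS run detecting inhibitors and substrates of CYP3A4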
[12] = NIH3T3 cell viability loss – ATP luminescence, mouse fibroblasts, counter-screen, dose response (AID 2010); format: functional, cell-based;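 further: cells exposed to compound for about 90 hours before reading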
[13] = Trypanosoma cruzi growth suppression in host cells – NIH3T3 host cells, beta-gal luminescence, confirmation (AID 2044); format: functional, cell-based;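 further: intracellular parasites grown in NIH/3T3 mouse fibroblasts as host cells; luminescent beta-galactosidase reporter signal from transgenic T. cruzi replicating inside host cells; inhibitors lower the luminescence signal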
[14] = biological target: T4, Ubiquitin-conjugating enzyme E2 N (Homo sapiens, UniProt P61088); format: functional;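 further: Dose-response confirmation in a TR-FRET assay detecting UBC13-driven polyubiquitin chain formation, inhibition measured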
T4 sequence (P61088 whole entry): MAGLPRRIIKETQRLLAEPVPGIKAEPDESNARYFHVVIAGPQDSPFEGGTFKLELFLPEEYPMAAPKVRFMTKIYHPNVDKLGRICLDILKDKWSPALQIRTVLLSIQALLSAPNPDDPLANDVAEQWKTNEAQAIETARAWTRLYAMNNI

Cytochrome P450 1A2 = biological target: T5, Cytochrome P450 1A2 (Homo sapiens, UniProt P05177);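 further: PubChem cytochrome P450 panel assay, CYP1A2 panel member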
T5 sequence (P05177 whole entry): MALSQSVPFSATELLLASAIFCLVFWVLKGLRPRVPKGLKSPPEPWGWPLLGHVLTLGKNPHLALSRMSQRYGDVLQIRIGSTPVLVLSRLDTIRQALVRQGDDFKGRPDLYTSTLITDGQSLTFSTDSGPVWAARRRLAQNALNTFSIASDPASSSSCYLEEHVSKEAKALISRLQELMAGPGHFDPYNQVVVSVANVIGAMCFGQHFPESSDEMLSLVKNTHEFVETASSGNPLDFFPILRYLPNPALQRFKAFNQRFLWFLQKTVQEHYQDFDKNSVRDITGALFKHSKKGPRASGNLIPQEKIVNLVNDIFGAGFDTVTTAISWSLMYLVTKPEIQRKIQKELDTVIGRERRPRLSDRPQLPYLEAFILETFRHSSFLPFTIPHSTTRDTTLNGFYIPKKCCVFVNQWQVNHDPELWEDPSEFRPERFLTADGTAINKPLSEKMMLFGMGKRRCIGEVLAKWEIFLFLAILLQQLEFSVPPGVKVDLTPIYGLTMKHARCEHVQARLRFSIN

Paired box protein Pax-8 = Paired box protein Pax-8 (Homo sapiens, UniProt Q06710); experiment: PAX8 transcriptional activity inhibition in RMG-I – RMG-I cells, luciferase, cherry-pick, dose response (AID 687027); format: functional, cell-based;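 further: luciferase reporter driven by Pax8 target thyroperoxidase promoter measured by SteadyGlo luminescence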
[15] = OVCAR8 cell viability loss – plate reader, dry powder samples, PAX8 project, dose response (AID 743197); format: functional, cell-based; settings: OVCAR-8
[16] = OVCAR-3 cell viability loss – plate reader, dry powder samples, PAX8 inhibitor project, dose response (AID 743044); format: functional, cell-based
[17] = general cell-killing toxicity readout – plate reader, dry powder samples, cytotoxicity control for PAX8 inhibitor project, dose response (AID 743021); format: functional, cell-based

Cytochrome P450 3A4, sequence (P08684 whole entry): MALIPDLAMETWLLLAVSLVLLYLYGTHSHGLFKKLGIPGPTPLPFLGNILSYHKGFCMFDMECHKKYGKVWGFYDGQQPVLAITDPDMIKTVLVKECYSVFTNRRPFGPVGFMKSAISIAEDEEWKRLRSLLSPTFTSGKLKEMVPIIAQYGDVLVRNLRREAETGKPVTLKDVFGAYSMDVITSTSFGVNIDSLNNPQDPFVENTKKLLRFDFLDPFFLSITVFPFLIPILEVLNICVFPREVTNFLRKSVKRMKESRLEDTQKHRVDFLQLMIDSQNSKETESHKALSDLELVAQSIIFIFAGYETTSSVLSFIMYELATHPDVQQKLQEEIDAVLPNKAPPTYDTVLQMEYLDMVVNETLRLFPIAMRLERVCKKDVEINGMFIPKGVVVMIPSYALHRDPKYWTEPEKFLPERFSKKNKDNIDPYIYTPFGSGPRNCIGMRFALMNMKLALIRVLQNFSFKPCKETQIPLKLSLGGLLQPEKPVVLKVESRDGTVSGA
Induced myeloid leukemia cell differentiation protein Mcl-1, sequence (Q07820 whole entry): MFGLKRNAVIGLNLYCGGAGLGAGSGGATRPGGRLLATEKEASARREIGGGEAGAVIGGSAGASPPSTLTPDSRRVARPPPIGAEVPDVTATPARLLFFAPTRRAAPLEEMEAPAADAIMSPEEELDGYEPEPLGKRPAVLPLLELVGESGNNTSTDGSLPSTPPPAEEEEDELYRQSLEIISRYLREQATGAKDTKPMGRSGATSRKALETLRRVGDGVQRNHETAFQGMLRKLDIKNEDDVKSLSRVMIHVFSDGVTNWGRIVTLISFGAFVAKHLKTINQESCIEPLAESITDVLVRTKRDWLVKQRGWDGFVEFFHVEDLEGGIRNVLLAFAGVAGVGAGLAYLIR
Paired box protein Pax-8, sequence (Q06710 whole entry): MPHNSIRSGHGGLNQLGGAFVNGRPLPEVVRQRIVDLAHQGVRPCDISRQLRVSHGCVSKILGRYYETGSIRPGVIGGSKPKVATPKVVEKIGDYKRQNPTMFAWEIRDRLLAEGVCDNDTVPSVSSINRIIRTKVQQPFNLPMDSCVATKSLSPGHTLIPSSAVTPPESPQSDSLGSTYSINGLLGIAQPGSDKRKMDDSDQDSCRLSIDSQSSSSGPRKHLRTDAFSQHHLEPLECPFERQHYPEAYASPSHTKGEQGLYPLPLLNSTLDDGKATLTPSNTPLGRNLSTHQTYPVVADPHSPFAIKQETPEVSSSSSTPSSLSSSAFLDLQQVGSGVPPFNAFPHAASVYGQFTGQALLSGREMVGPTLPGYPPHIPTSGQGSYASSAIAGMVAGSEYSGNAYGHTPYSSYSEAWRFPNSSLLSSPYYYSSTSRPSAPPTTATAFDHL

For COCCN1C(=O)Cc2c1nc(N)c1c(N)nc(N3CCN(c4ccc(F)cc4)CC3)c(C#N)c21, the IC50 [1] was > 50 µM (not active).
With COc1ccc(OC)c(NC(=O)CCc2nnc3ccc(NCc4ccco4)nn23)c1 the EC50 (cells [2]) was > 350 µM (not active) and the EC50 (cells [3]) was > 350 µM (not active).
With CN1CC(=O)N=C1NC(=O)C12CC3CC(CC(C3)C1)C2 the IC50 (cells [4]) was 23.9 µM (active) and the CC50 [5] was > 40 µM (active).
With COC(=O)c1ccc(N2C(=O)CC(N3CCC(O)(c4ccc(Br)cc4)CC3)C2=O)cc1 (stereo not drawn) the AC50 [6] was 2.85 µM (active).
In the case of O=C(/C=C/N1CCOCC1)c1ccc(-c2ccccc2)cc1, the EC50 [7] is reported as 3.53 µM (active), the EC50 (H4) is reported as 57.7 µM (active) and the EC50 [8] is reported as 36.8 µM (active). For the same compound, the EC50 [9] was > 300 µM (not active), the EC50 [10] was > 300 µM (not active) and the AC50 [6] was 1.68 µM (active).
For COc1ccccc1N1CCN(CCCNC(=O)C2CCCN(c3ncnc4c3nc3n4CCCCC3)C2)CC1 (stereo not drawn), the EC50 (cells [2]) was > 350 µM (not active) and the EC50 (cells [3]) was > 350 µM (not active).
For NC(=S)NNC(=O)c1cc(C(F)(F)F)cc(C(F)(F)F)c1, the EC50 (cells [2]) was > 350 µM (not active) and the EC50 (cells [3]) was > 350 µM (not active).
With CCOc1cc2c(C#N)c(N3CCCCC3)nc(N)c2c(N)n1 the IC50 [1] was > 50 µM (not active).
For CN(C)c1ccc(NC(=O)/C=C/c2ccccc2Cl)cc1, the IC50 [11] was > 54 µM (active).
With COc1ccc(-c2nnc(SCC(=O)Oc3ccc(C)cc3)o2)cc1 the AC50 [6] was 2.53 µM (active).
With COCCNc1nc(C)nc2c1nc(-c1ccccc1)n2CCCN1CCCCC1C (stereo not drawn) the AC50 (Cytochrome P450 3A4) was 3.98 µM (inconclusive).
With COc1cccc(C(=O)Nc2cc(Cl)c(O)c(Cl)c2)c1 the IC50 [11] was 3.46 µM (not active).
In the case of CCCCCCC(=O)N(O)C1CC(=O)N(c2ccc(Cl)cc2)C1=O (stereo not drawn), the AC50 [6] is reported as 1.64 µM (active).
For CC1(C)CC[C@]2(C(=O)O)CC[C@]3(C)C(=CCC4[C@@]5(C)CC[C@H](O)C(C)(C)C5[C@H](O)C[C@]43C)C2C1 (stereo partly drawn), the AC50 (Cytochrome P450 3A4) was 25.1 µM (inconclusive).
With CC1(C)CCC2(C(=O)O)CC[C@]3(C)C(=CCC4[C@]5(C)CCC(O)C(C)(C)C5C(O)C[C@]43C)C2C1 (stereo partly drawn) the AC50 (Cytochrome P450 3A4) was 2.51 µM (inconclusive).
With COc1cc(-c2[nH]c(C(=O)NC3CCN(Cc4ccccc4)CC3)cc3c4ccccc4nc2-3)cc(OC)c1OC the EC50 [12] was 5.61 µM (active), the EC50 [13] was 125 nM (active) and the IC50 [14] was > 20 µM (inactive).
For COC(=O)c1cccc(C23CC4(C2)[C@H](CN(C)[C@@H]4c2ccccc2)C3c2ccc(Cl)nc2)c1 (stereo partly drawn), the AC50 (Cytochrome P450 3A4) was 5.01 µM (inconclusive).
For CN(CCO)c1nc(N)c2c(N)nc3c(c2c1C#N)CC(=O)N3C1CCCC1, the AC50 (Cytochrome P450 1A2) was 2.82 µM (inconclusive) and the IC50 [1] was > 50 µM (not active).
With COc1ccccc1NC(=O)COC(=O)C12CC3CC(CC(Br)(C3)C1)C2 the IC50 [14] was > 20 µM (inactive).
For Cc1nnc(C)n1/N=C/c1cc(Br)cc(Br)c1O, the AC50 [6] was 1.68 µM (active).
For CCOc1ccc(N2C(=O)CC(Sc3nc(C)cc(C)n3)C2=O)cc1 (stereo not drawn), the EC50 (cells [2]) was > 350 µM (not active) and the EC50 (cells [3]) was > 350 µM (not active).
With C[C@@H]1CCCCO[C@@H](CN(C)Cc2ccccc2)[C@H](C)CN([C@H](C)CO)C(=O)c2cc(NC(=O)Nc3ccc(C(F)(F)F)cc3)ccc2O1 the AC50 (Paired box protein Pax-8) was 4.61 µM (active) and the AC50 [15] was > 70 µM (inactive).
In the case of C[C@H]1CCCCO[C@@H](CN(C)Cc2ccc3c(c2)OCO3)[C@@H](C)CN([C@@H](C)CO)C(=O)c2cc(NC(=O)Nc3ccc(F)cc3)ccc2O1, the AC50 (Paired box protein Pax-8) is reported as 22 µM (active) and the AC50 [16] is reported as 31.2 µM (active).
For C[C@H](CO)N1C[C@H](C)[C@H](CN(C)Cc2ccc(C(F)(F)F)cc2)OCCCC[C@H](C)Oc2ccc(NC(=O)CCC(F)(F)F)cc2C1=O, the AC50 (Paired box protein Pax-8) was 5.89 µM (active), the AC50 [15] was 63.8 µM (active) and the AC50 [16] was 14.8 µM (active).
In the case of C[C@@H]1CN([C@@H](C)CO)S(=O)(=O)c2ccc(C#Cc3ccccc3F)cc2O[C@H]1CN(C)C(=O)Cc1ccccc1, the AC50 [17] is reported as 25.5 µM (active), the AC50 (Paired box protein Pax-8) is reported as 5.88 µM (active) and the AC50 [15] is reported as 37.6 µM (active). The AC50 [16] was 14.5 µM (active).
With CCCNC(=O)Nc1ccc2c(c1)OC[C@@H](C)N(Cc1ccc(-c3ccccn3)cc1)C[C@@H](C)[C@H](OC)CN(C)C2=O the AC50 [17] was 41.7 µM (active) and the AC50 (Paired box protein Pax-8) was 30.1 µM (active).
In the case of O=c1cc(-c2ccccc2O)oc2c(O)c(O)ccc12, the AC50 (Cytochrome P450 3A4) is reported as 31.6 µM (inconclusive).
In the case of CCN(/N=C/c1ccc(N(C)C)cc1)c1nc2ccccc2[nH]1, the IC50 [11] is reported as 1.44 µM (active).
With CCc1ccc(NC(=O)COC(=O)c2cccs2)cc1 the EC50 (cells [2]) was 79.4 µM (active) and the EC50 (cells [3]) was > 350 µM (not active).
In the case of CC(C)(O)C(=O)Nc1ccc([N+](=O)[O-])c(C(F)(F)F)c1 [HYDROXYFLUTAMIDE], the AC50 (Cytochrome P450 3A4) is reported as 25.1 µM (inconclusive).
With COC(=O)c1cc(OC)c(=O)c2c(OC)c(OC)ccc2c1 [METHYL 7-DESOXYPURPUROGALLIN-7-CARBOXYLATE TRIMETHYL ETHER] the AC50 (Cytochrome P450 3A4) was 39.8 µM (inconclusive).
